Measurements published in paper PMC2769490 (Journal of the American Chemical Society, 2009).

Biological target: rabbit muscle actin (Oryctolagus cuniculus, UniProt P68135)
Assay: microcalorimetry
Assay type: binding

O=C(c1ccccc1O)c1[nH]c(Cl)c(Cl)c1-n1c(C(=O)c2ccccc2O)cc(Cl)c1Cl [compound 6, marinopyrrole A]
Kd: 120 ± 200 nM
